Source: patent publication US8338414B2, “Immunosuppressive agent and anti-tumor agent comprising heterocyclic compound as active ingredient” (Zenyaku Kogyo KabushikiKaisha, priority 2005, dated 2012)
Where two headings read alike, the source gives them in different places. Each block holds one compound with its values, some of them ahead of it.

Experiments:
[1] = system: Jurkat cells; assay: Proliferation inhibitory activity on hematologic neoplasm cells, Jurkat; type: cell-based; details: 3 days, Alamar Blue
Description: (§1) Daudi cells (5×10^5 cells/mL), Jurkat cells (5×10^5 cells/mL), THP-1 cells (5×10^5 cells/mL), U 937 cells (5×10^5 cells/mL), and HL 60 cells (5×10^5 cells/mL) suspended in RPMI 1640 medium (containing 10% fetal bovine serum, 10 mM HEPES, 1 mM pyruvic acid, 4.5 g/L glucose, 100 units/mL penicillin, and 0.1 mg/mL streptomycin) were seeded in 96 well plates at a capacity of 0.135 mL per well. Serial dilutions of test substances were added to respective wells at 15 μL/well, and incubated under conditions of carbon dioxide 5% at 37° C. for 3 days. Thereafter, Alamar Blue solution was added at 50 μL, and after incubation for one day, the fluorescence intensity at 590 nm using an excitation wavelength of 530 nm was determined by Cytoflour 4000 (Applied Biosystems).

[2] = system: Daudi cells; assay: Proliferation inhibitory activity on hematologic neoplasm cells, Daudi; type: cell-based; details: 3 days, Alamar Blue
Description: as §1

[3] = system: human peripheral blood mononuclear cells; assay: Proliferation inhibition assay for human peripheral blood mononuclear cells; type: cell-based; details: PBMC, anti-CD3 and anti-CD28 antibody, 3 days, Alamar Blue
Description: 4 mL of blood collected from healthy subjects was placed on 3 mL of MonoPoly Resolving Medium, and after centrifugation, the mononuclear cell (PBMC) fraction was collected. After washing with saline, PBMC (1×10^5 cells/mL) was suspended in RPMI 1640 medium (containing 10% fetal bovine serum, 10 mM HEPES, 1 mM pyruvic acid, and 4.5 g/L glucose). Next, after having added an anti-CD28 antibody (1 μg/mL) to the suspension, they were seeded on an anti-human CD3 T cell activation plate (BD Bioscience) at a capacity of 0.135 mL per well. Then, serial dilutions of test substances were added to respective wells, and incubated under conditions of carbon dioxide 5% at a temperature 37° C. After 3 days, Alamar Blue solution was added at 50 μL per well, and after incubation for one day, a fluorescence intensity at 590 nm using an excitation wavelength of 530 nm was determined by Cytoflour 4000 (Applied Biosystems).

[4] = system: HL 60 cells; assay: Proliferation inhibitory activity on hematologic neoplasm cells, HL60; type: cell-based; details: 3 days, Alamar Blue
Description: as §1

[5] = system: U 937 cells; assay: Proliferation inhibitory activity on hematologic neoplasm cells, U937; type: cell-based; details: 3 days, Alamar Blue
Description: as §1

[6] = system: THP-1 cells; assay: Proliferation inhibitory activity on hematologic neoplasm cells, THP-1; type: cell-based; details: 3 days, Alamar Blue
Description: as §1

[7] = system: allogeneic mixed lymphocyte reaction; assay: Allogeneic mixed lymphocyte reaction; type: cell-based, mouse; details: C57BL/6N spleen stimulator cells, BALB/c lymph node responder cells, 86 hours, BrdU
Description: Spleen cells prepared from C57BL/6N female mice (8-10 weeks old, purchased from Charles River Laboratories Japan Inc.) and peripheral lymph node mononuclear cells prepared from BALB/c female mice (8-10 weeks old, purchased from Charles River Laboratories Japan Inc.) were used as stimulator cells and responder cells, respectively. The respective cells were suspended in RPMI 1640 medium (containing 10% fetal bovine serum, 100 units/mL penicillin, and 0.1 mg/mL streptomycin) (with 2×10^6 cells/mL).

[8] = system: Rabbit synoviocytes HIG-82; assay: Inhibition assay for proliferation of rabbit synoviocyte; type: cell-based; details: HIG-82, 3 days, Alamar Blue
Description: Rabbit synoviocytes HIG-82 suspended in HAM medium (containing 10% fetal bovine serum, 25 mM HEPES, and 0.1 mg/mL kanamycin) (with 4×10^4 cells/mL) were seeded in wells of a 96 well plate at 0.135 mL per well. Then, 15 μL of each of serial dilutions of test substances was added to a respective well, and incubated under conditions of carbon dioxide 5% at a temperature 37° C. Alamar Blue solution was added at 50 μL per well on day 0 and day 3, and incubated for one day, and thereafter fluorescence intensity at 590 nm using an excitation wavelength of 530 nm was determined by Cytoflour 4000 (Applied Biosystems).

[9] = system: mouse spleen cells; assay: Proliferation inhibition assay for mouse spleen cells; type: cell-based; details: 3 days, Alamar Blue
Description: Spleen cells (2×10^6 cells/mL) prepared from C57BL/6N female mice (8 weeks old, purchased from Charles River Laboratories Japan Inc.) were suspended in RPMI 1640 medium (containing 10% fetal bovine serum, 10 mM HEPES, 1 mM pyruvic acid, 4.5 g/L glucose, 100 units/mL penicillin, and 0.1 mg/mL streptomycin), and seeded in wells of a 96 well plate at 0.225 mL per well. Serial dilutions of test substances were added to respective wells, and then concanavalin A (Con A, 3 μg/mL), lipopolysaccharide (LPS, 100 μg/mL), or an anti-mouse IgM antibody (100 μg/mL) were added. Thereafter, they were incubated under conditions of carbon dioxide 5% at a temperature 37° C. for 3 days. Next, Alamar Blue solution was added at 50 μL per 150 μL, and after having cultured for one day, the fluorescence intensity at 590 nm using an excitation wavelength of 530 nm was determined by Cytoflour 4000 (Applied Biosystems).

[10] = 72 h, LPS 100 μg/mL, read-out: Inhibition of LPS response
[11] = 72 h, anti-mouse IgM antibody 100 μg/mL, read-out: Inhibition of Anti-IgM antibody response
[12] = 72 h, concanavalin A 3 μg/mL, read-out: Inhibition of Con A response

Compound: 2-(2-Difluoromethyl-4-hydroxybenzimidazol-1-yl)-4-morpholino-6-(2,6-dimethylmorpholino)pyrimidine [Compound 11]
IC50 [1]: > 10000 nM
IC50 [2]: 2750 nM
IC50 [3]: > 10000 nM
IC50 [4]: > 10000 nM
IC50 [5]: > 10000 nM
IC50 [6]: > 10000 nM
IC50 [7]: 1430 nM
IC50 [8]: > 10000 nM

Compound: C[C@@H]1OCCN(c2nc(N3CCOCC3)nc(-n3cnc4ccccc43)n2)[C@H]1C (relative stereo) [Compound 2, 2-(Benzimidazol-1-yl)-4-(trans-2,3-dimethylmorpholino)-6-morpholino-1,3,5-triazine]
IC50 [9, 10]: 100 to 10000 nM
IC50 [9, 11]: 100 to 10000 nM
IC50 [9, 12]: 100 to 10000 nM
melting point: 147 to 150 °C

Compound: C[C@@H]1OCCN(c2nc(N3CCOCC3)nc(-n3c(C(F)F)nc4ccc(N)cc43)n2)[C@@H]1C (relative stereo) [Compound 8, 2-(6-Amino-2-difluoromethylbenzimidazol-1-yl)-4-(cis-2,3-dimethylmorpholino)-6-morpholino-1,3,5-triazine]
IC50 [9, 10]: 100 to 10000 nM
IC50 [9, 11]: 1 to 100 nM
IC50 [9, 12]: 1 to 100 nM
melting point: 220 to 222 °C (dec.)

Compound: Nc1nc2ccccc2n1-c1nc(N2CCOCC2)cc(N2CCOCC2)n1 [Compound 5, 2-(2-Aminobenzimidazol-1-yl)-4,6-dimorpholinopyrimidine]
IC50 [9, 10]: 100 to 10000 nM
IC50 [9, 11]: 100 to 10000 nM
IC50 [9, 12]: 100 to 10000 nM
melting point: 237 to 239 °C

Compound: FC(F)c1nc2ccccc2n1-c1nc(N2CCCCC2)nc(N2CCOCC2)n1 [Compound 7, 2-(2-Difluoromethylbenzimidazol-1-yl)-4-piperidino-6-morpholino-1,3,5-triazine]
IC50 [9, 10]: 100 to 10000 nM
IC50 [9, 11]: 100 to 10000 nM
IC50 [9, 12]: 100 to 10000 nM
melting point: 190 to 192 °C

Compound: CCOc1ccc2nc(C(F)F)n(-c3nc(N4CCOCC4)nc(N4CCOCC4)n3)c2c1 [Compound 9, 2-(2-Difluoromethyl-6-ethoxybenzimidazol-1-yl)-4,6-dimorpholino-1,3,5-triazine]
IC50 [9, 10]: 1 to 100 nM
IC50 [9, 11]: 1 to 100 nM
IC50 [9, 12]: 1 to 100 nM
melting point: 222 to 224 °C

Compound: Oc1ccc2c(c1)nc(C(F)F)n2-c1nc(N2CCOCC2)nc(N2CCOCC2)n1 [Compound 12, 2-(2-Difluoromethyl-5-hydroxybenzimidazol-1-yl)-4,6-dimorpholino-1,3,5-triazine]
IC50 [9, 10]: 1 to 100 nM
IC50 [9, 11]: 1 to 100 nM
IC50 [9, 12]: 1 to 100 nM
melting point: 272 to 274 °C

Compound: CC1(C)CN(c2nc(N3CCOCC3)nc(-n3c(C(F)F)nc4ccc(N)cc43)n2)CCO1 [Compound 13, 2-(6-Amino-2-difluoromethylbenzimidazol-1-yl)-4-(2,2-dimethylmorpholino)-6-morpholino-1,3,5-triazine]
IC50 [9, 10]: 1 to 100 nM
IC50 [9, 11]: 1 to 100 nM
IC50 [9, 12]: 1 to 100 nM
melting point: 226 to 227 °C (dec.)

Compound: CC1CN(c2cc(N3CC(C)OC(C)C3)nc(-n3c(C(F)F)nc4cc(N)ccc43)n2)CC(C)O1 (stereo not drawn) [Compound 17, 2-(5-Amino-2-difluoromethylbenzimidazol-1-yl)-4,6-di(2,6-dimethylmorpholino)pyrimidine]
IC50 [9, 10]: 10000 to 100000 nM
IC50 [9, 11]: 100 to 10000 nM
IC50 [9, 12]: 100 to 10000 nM
melting point: 157 to 160 °C

More lines, main results first:

melting point: 185 to 187 °C
Compound: CC1(C)CN(c2cc(N3CCOCC3)nc(-n3c(C(F)F)nc4c(O)cccc43)n2)CCO1 [Compound 21, 2-(2-Difluoromethyl-4-hydroxybenzimidazol-1-yl)-4-(2,2-dimethylmorpholino)-6-morpholinopyrimidine]
IC50 [9, 10]: ≤ 1 nM
IC50 [9, 11]: ≤ 1 nM
IC50 [9, 12]: ≤ 1 nM

IC50 [1]: 3120 nM
IC50 [2]: 426 nM
IC50 [6]: 865 nM
Compound: ON1CCN(c2nc(N3CCOCC3)nc(-n3c(C(F)F)nc4ccccc43)n2)CC1 [Compound 26, 2-(2-Difluoromethylbenzimidazol-1-yl)-4-(4-hydroxypiperizin-1-yl)-6-morpholino-1,3,5-triazine]
IC50 ([9]; LPS 100 μg/mL, read-out: Inhibition of LPS response): 1 to 100 nM
IC50 ([9]; concanavalin A 3 μg/mL, read-out: Inhibition of Con A response): ≤ 1 nM
IC50 [8]: 2380 nM

melting point: 217 to 220 °C
Compound: Cc1cc2nc(C(F)F)n(-c3nc(N4CCOCC4)nc(N4CCOCC4)n3)c2cc1C [Production Example 29, 2-(5,6-Dimethyl-2-difluoromethylbenzimidazol-1-yl)-4,6-dimorpholino-1,3,5-triazine]

melting point: 256 °C (dec.)
Compound: Nc1cc(Cl)c2nc(C(F)F)n(-c3nc(N4CCOCC4)nc(N4CCCC4CO)n3)c2c1 (stereo not drawn) [Production Example 30, 2-(6-Amino-4-chloro-2-difluoromethylbenzimidazol-1-yl)-4-(2-hydroxymethylpyrrolidin-1-yl)-6-morpholino-1,3,5-triazine]

melting point: > 250 °C
Compound: Oc1ccc2c(nc(C(F)F)n2-c2nc(N3CCOCC3)nc(N3CCOCC3)n2)c1Cl [Production Example 31, 2-(4-Chloro-2-difluoromethyl-5-hydroxybenzimidazol-1-yl)-4,6-dimorpholino-1,3,5-triazine]

melting point: 228 to 230 °C
Compound: O=CN1CCN(c2nc(N3CCOCC3)nc(-n3c(C(F)F)nc4ccccc43)n2)CC1 [Production Example 33, 2-(2-Difluoromethylbenzimidazol-1-yl)-6-(4-formylpiperazin-1-yl)-4-morpholino-1,3,5-triazine]

melting point: 255 to 257 °C
Compound: O=C1CN(c2nc(N3CCOCC3)nc(-n3c(C(F)F)nc4ccccc43)n2)CCN1 [Production Example 34, 2-(2-Difluoromethylbenzimidazol-1-yl)-4-morpholino-6-(3-oxopiperazin-1-yl)-1,3,5-triazine]

melting point: 230 to 232 °C
Compound: O=C1CN(c2nc(N3CCOCC3)nc(-n3c(C(F)F)nc4ccccc43)n2)CC(=O)N1 [Production Example 35, 2-(2-Difluoromethylbenzimidazol-1-yl)-6-(3,5-dioxopiperazin-1-yl)-4-morpholino-1,3,5-triazine]

melting point: 255 to 260 °C
Compound: COC(=O)N1CCN(c2nc(N3CCOCC3)nc(-n3c(C(F)F)nc4ccccc43)n2)CC1 [Production Example 43, 2-(2-Difluoromethylbenzimidazol-1-yl)-4-(4-methoxycarbonylpiperazin-1-yl)-6-morpholino-1,3,5-triazine]
